The text below walks through data of patent US9765105B2, “Macrolide compound” (Pulike Biological Engineering, Inc., priority 2013, dated 2017).

Structures are written as SMILES.

Holding throughout (assay): in vitro susceptibility, MIC by mini broth dilution
Common to all, as to format: cell-based

Test [1] relates to Pasteurella multocida CVCC399. The conditions noted are these: strain CVCC399. Summed up: (§1)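 Broth microdilution MIC, NCCLS method: 11-point two-fold DMSO compound series, duplicate rows, well 12 as control. Inoculum from 20 h, 35° C plate cultures, diluted 1:200 in broth.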
In test [2] the test system is Haemophilus parasuis. Summed up:
as §1

Test [3] relates to Actinobacillus pleuropneumoniae CVCC262. The conditions noted are these: strain CVCC262. Summed up:
as §1

In test [4] the test system is Streptococcus equines CVCC556. The settings on record: strain CVCC556. Summed up:
as §1

Test [5] deals with Staphylococcus aureus CVCC26003. The conditions noted are these: strain CVCC26003. In short, it runs like this:
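S. aureus CVCC26003 was revived and subcultured twice, 20 h each at 35° C, on solid medium, then diluted 1:200 in CAMHB liquid medium. Compounds received an 11-step two-fold DMSO dilution in parallel duplicate rows. MIC was read by mini broth dilution per NCCLS guidance.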

For `CCCN1C[C@H](C)[C@@H](O)[C@](C)(O)[C@@H](CC)OC(=O)[C@H](C)[C@@H](O[C@H]2C[C@@](C)(OC)[C@](O)(CNN3CCOCC3)[C@H](C)O2)[C@H](C)[C@@H](O[C@@H]2O[C@H](C)C[C@H](N(C)C)[C@H]2O)[C@](C)(O)C[C@H]1C` [syzx-148], the “MIC values, Pasteurella multocida CVCC399” value in test [1] is reported as 1 ug/mi. In addition, in test [2], the “MIC values, Haemophilus parasuis” value is 0.5 ug/mi. Further, the “MIC values, Actinobacillus pleuropneumoniae CVCC262” value in test [3] is 0.5 ug/mi. The “MIC values, Streptococcus equines CVCC556” value in test [4] was found to be 0.25 ug/mi. Further, the “MIC values, Staphylococcus aureus CVCC26003” value in test [5] turned out to be 0.25 ug/mi.

In the case of `CCCN1C[C@H](C)[C@@H](O)[C@](C)(O)[C@@H](CC)OC(=O)[C@H](C)[C@@H](O[C@H]2C[C@@](C)(OC)[C@](O)(CNC(C)CC(=O)O)[C@H](C)O2)[C@H](C)[C@@H](O[C@@H]2O[C@H](C)C[C@H](N(C)C)[C@H]2O)[C@](C)(O)C[C@H]1C` (stereo partly drawn) [syzx-150], in test [1], the “MIC values, Pasteurella multocida CVCC399” value was 2 ug/mi. In addition, the “MIC values, Haemophilus parasuis” value in test [2] was found to be 0.5 ug/mi. For the same compound, the “MIC values, Actinobacillus pleuropneumoniae CVCC262” value in test [3] came to 1 ug/mi. Further, the “MIC values, Streptococcus equines CVCC556” value in test [4] is listed as 0.25 ug/mi. The “MIC values, Staphylococcus aureus CVCC26003” value in test [5] worked out at 0.5 ug/mi.

As to `CCCN1C[C@H](C)[C@@H](O)[C@](C)(O)[C@@H](CC)OC(=O)[C@H](C)[C@@H](O[C@H]2C[C@@](C)(OC)[C@](O)(CNC(CC)CO)[C@H](C)O2)[C@H](C)[C@@H](O[C@@H]2O[C@H](C)C[C@H](N(C)C)[C@H]2O)[C@](C)(O)C[C@H]1C` (stereo partly drawn) [syzx-151], the “MIC values, Pasteurella multocida CVCC399” value in test [1] was 0.5 ug/mi. In test [2], the “MIC values, Haemophilus parasuis” value is reported as 0.25 ug/mi. The “MIC values, Actinobacillus pleuropneumoniae CVCC262” value in test [3] was determined as 0.25 ug/mi. Also, in test [4], the “MIC values, Streptococcus equines CVCC556” value was determined as 0.25 ug/mi. In test [5], the “MIC values, Staphylococcus aureus CVCC26003” value turned out to be 0.25 ug/mi.

For the compound `CCCN1CC(C)C(O)C(C)(O)C(CC)OC(=O)C(C)C(OC2CC(C)(OC)C(O)(CNCCOS(=O)(=O)O)C(C)O2)C(C)C(OC2OC(C)CC(N(C)C)C2O)C(C)(O)CC1C` (stereo not drawn) [syzx-153], the “MIC values, Pasteurella multocida CVCC399” value in test [1] was 1 ug/mi. For the same compound, the “MIC values, Haemophilus parasuis” value in test [2] came out at 0.25 ug/mi. The “MIC values, Actinobacillus pleuropneumoniae CVCC262” value in test [3] came to 0.25 ug/mi. Further, in test [4], the “MIC values, Streptococcus equines CVCC556” value is 0.25 ug/mi. The “MIC values, Staphylococcus aureus CVCC26003” value in test [5] is on record as 0.25 ug/mi.

With `CCCN1C[C@H](C)[C@@H](O)[C@](C)(O)[C@@H](CC)OC(=O)[C@H](C)[C@@H](O[C@H]2C[C@@](C)(OC)[C@](O)(CNCc3ccc(F)c(F)c3)[C@H](C)O2)[C@H](C)[C@@H](O[C@@H]2O[C@H](C)C[C@H](N(C)C)[C@H]2O)[C@](C)(O)C[C@H]1C` [syzx-154], in test [1], the “MIC values, Pasteurella multocida CVCC399” value is given as 0.5 ug/mi. Further, the “MIC values, Haemophilus parasuis” value in test [2] was determined as 0.25 ug/mi. In addition, the “MIC values, Actinobacillus pleuropneumoniae CVCC262” value in test [3] was determined as 0.25 ug/mi. Also, the “MIC values, Streptococcus equines CVCC556” value in test [4] is 0.5 ug/mi. In addition, in test [5], the “MIC values, Staphylococcus aureus CVCC26003” value is listed as 0.25 ug/mi.

Regarding `CCCN1C[C@H](C)[C@@H](O)[C@](C)(O)[C@@H](CC)OC(=O)[C@H](C)[C@@H](O[C@H]2C[C@@](C)(OC)[C@](O)(CNCc3cc(F)cc(F)c3)[C@H](C)O2)[C@H](C)[C@@H](O[C@@H]2O[C@H](C)C[C@H](N(C)C)[C@H]2O)[C@](C)(O)C[C@H]1C` [syzx-155], in test [1], the “MIC values, Pasteurella multocida CVCC399” value turned out to be 0.5 ug/mi. Moreover, the “MIC values, Haemophilus parasuis” value in test [2] came to 0.25 ug/mi. Further, the “MIC values, Actinobacillus pleuropneumoniae CVCC262” value in test [3] worked out at 0.25 ug/mi. Moreover, in test [4], the “MIC values, Streptococcus equines CVCC556” value was found to be 0.25 ug/mi. Further, in test [5], the “MIC values, Staphylococcus aureus CVCC26003” value is reported as 0.25 ug/mi.

In the case of `CCCN1C[C@H](C)[C@@H](O)[C@](C)(O)[C@@H](CC)OC(=O)[C@H](C)[C@@H](O[C@H]2C[C@@](C)(OC)[C@](O)(CNCCOC)[C@H](C)O2)[C@H](C)[C@@H](O[C@@H]2O[C@H](C)C[C@H](N(C)C)[C@H]2O)[C@](C)(O)C[C@H]1C` [syzx-158], in test [1], the “MIC values, Pasteurella multocida CVCC399” value amounted to 2 ug/mi. Also, the “MIC values, Haemophilus parasuis” value in test [2] came to 4 ug/mi. In test [3], the “MIC values, Actinobacillus pleuropneumoniae CVCC262” value came out at 4 ug/mi. Besides, in test [4], the “MIC values, Streptococcus equines CVCC556” value is reported as 0.25 ug/mi. Besides, the “MIC values, Staphylococcus aureus CVCC26003” value in test [5] turned out to be 2 ug/mi.

Regarding `CCCN1C[C@H](C)[C@@H](O)[C@](C)(O)[C@@H](CC)OC(=O)[C@H](C)[C@@H](O[C@H]2C[C@@](C)(OC)[C@](O)(CNC(C)CCCN(CC)CC)[C@H](C)O2)[C@H](C)[C@@H](O[C@@H]2O[C@H](C)C[C@H](N(C)C)[C@H]2O)[C@](C)(O)C[C@H]1C` (stereo partly drawn) [syzx-159], the “MIC values, Pasteurella multocida CVCC399” value in test [1] came out at 0.5 ug/mi. In addition, in test [2], the “MIC values, Haemophilus parasuis” value is on record as 0.25 ug/mi. Also, in test [3], the “MIC values, Actinobacillus pleuropneumoniae CVCC262” value was found to be 0.25 ug/mi. In addition, the “MIC values, Streptococcus equines CVCC556” value in test [4] came out at 0.25 ug/mi. For the same compound, the “MIC values, Staphylococcus aureus CVCC26003” value in test [5] is listed as 0.5 ug/mi.

With `CCCN1C[C@H](C)[C@@H](O)[C@](C)(O)[C@@H](CC)OC(=O)[C@H](C)[C@@H](O[C@H]2C[C@@](C)(OC)[C@](O)(CNCCc3ccc(S(N)(=O)=O)cc3)[C@H](C)O2)[C@H](C)[C@@H](O[C@@H]2O[C@H](C)C[C@H](N(C)C)[C@H]2O)[C@](C)(O)C[C@H]1C` [syzx-161], the “MIC values, Pasteurella multocida CVCC399” value in test [1] stood at 0.5 ug/mi. The “MIC values, Haemophilus parasuis” value in test [2] was 0.25 ug/mi. Also, the “MIC values, Actinobacillus pleuropneumoniae CVCC262” value in test [3] was 0.25 ug/mi. The “MIC values, Streptococcus equines CVCC556” value in test [4] was found to be 0.25 ug/mi. Also, the “MIC values, Staphylococcus aureus CVCC26003” value in test [5] is recorded as 0.25 ug/mi.

Consider `C#CC=C(C)NC[C@]1(O)[C@H](C)O[C@@H](O[C@H]2[C@H](C)[C@@H](O[C@@H]3O[C@H](C)C[C@H](N(C)C)[C@H]3O)[C@](C)(O)C[C@@H](C)N(CCC)C[C@H](C)[C@@H](O)[C@](C)(O)[C@@H](CC)OC(=O)[C@@H]2C)C[C@@]1(C)OC` [syzx-162], for which the “MIC values, Pasteurella multocida CVCC399” value in test [1] stood at 1 ug/mi. In test [2], the “MIC values, Haemophilus parasuis” value was found to be 0.25 ug/mi. Besides, the “MIC values, Actinobacillus pleuropneumoniae CVCC262” value in test [3] stood at 0.25 ug/mi. Further, in test [4], the “MIC values, Streptococcus equines CVCC556” value amounted to 0.25 ug/mi. For the same compound, the “MIC values, Staphylococcus aureus CVCC26003” value in test [5] is reported as 0.25 ug/mi.

In the case of `CCCC(C)NC[C@]1(O)[C@H](C)O[C@@H](O[C@H]2[C@H](C)[C@@H](O[C@@H]3O[C@H](C)C[C@H](N(C)C)[C@H]3O)[C@](C)(O)C[C@@H](C)N(CCC)C[C@H](C)[C@@H](O)[C@](C)(O)[C@@H](CC)OC(=O)[C@@H]2C)C[C@@]1(C)OC` (stereo partly drawn) [syzx-163], the “MIC values, Pasteurella multocida CVCC399” value in test [1] is recorded as 1 ug/mi. Further, in test [2], the “MIC values, Haemophilus parasuis” value stood at 0.25 ug/mi. The “MIC values, Actinobacillus pleuropneumoniae CVCC262” value in test [3] amounted to 0.25 ug/mi. Moreover, in test [4], the “MIC values, Streptococcus equines CVCC556” value was determined as 0.25 ug/mi. For the same compound, the “MIC values, Staphylococcus aureus CVCC26003” value in test [5] is on record as 0.25 ug/mi.

As to `CCCN1C[C@H](C)[C@@H](O)[C@](C)(O)[C@@H](CC)OC(=O)[C@H](C)[C@@H](O[C@H]2C[C@@](C)(OC)[C@](O)(CNCCc3ccncc3)[C@H](C)O2)[C@H](C)[C@@H](O[C@@H]2O[C@H](C)C[C@H](N(C)C)[C@H]2O)[C@](C)(O)C[C@H]1C` [syzx-164], the “MIC values, Pasteurella multocida CVCC399” value in test [1] worked out at 2 ug/mi. Besides, the “MIC values, Haemophilus parasuis” value in test [2] was found to be 0.25 ug/mi. Also, the “MIC values, Actinobacillus pleuropneumoniae CVCC262” value in test [3] was 0.25 ug/mi. The “MIC values, Streptococcus equines CVCC556” value in test [4] is 0.5 ug/mi. Also, the “MIC values, Staphylococcus aureus CVCC26003” value in test [5] is 0.25 ug/mi.
